Measurements as given in ChEMBL document CHEMBL1201862, “PubChem BioAssay data set” (2004).
Activity calls are given as the source filed them.

What was measured:
[1] = PAX5 cellular inhibition readout – cell-based, plate reader, dry powder samples, selectivity assay for PAX8 inhibitor project, dose response (AID 743047); type: functional;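 note: HEK293 cells carrying a Pax5 driven CD19 promoter luciferase reporter; potency of inhibitors that lower reporter luminescence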
[2] = biological target: T1, Microphthalmia-associated transcription factor (Homo sapiens, UniProt O75030); experiment: reducers of TRPM1 reporter luminescence, concentration series – cell-based, SK-MEL-5, cherry-picked, set 3, MITF inhibitor project, dose response (AID 493073); type: functional;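 note: SK-MEL-5 melanoma cells with luciferase driven by the MITF target TRPM1 promoter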
T1 sequence (O75030 whole entry): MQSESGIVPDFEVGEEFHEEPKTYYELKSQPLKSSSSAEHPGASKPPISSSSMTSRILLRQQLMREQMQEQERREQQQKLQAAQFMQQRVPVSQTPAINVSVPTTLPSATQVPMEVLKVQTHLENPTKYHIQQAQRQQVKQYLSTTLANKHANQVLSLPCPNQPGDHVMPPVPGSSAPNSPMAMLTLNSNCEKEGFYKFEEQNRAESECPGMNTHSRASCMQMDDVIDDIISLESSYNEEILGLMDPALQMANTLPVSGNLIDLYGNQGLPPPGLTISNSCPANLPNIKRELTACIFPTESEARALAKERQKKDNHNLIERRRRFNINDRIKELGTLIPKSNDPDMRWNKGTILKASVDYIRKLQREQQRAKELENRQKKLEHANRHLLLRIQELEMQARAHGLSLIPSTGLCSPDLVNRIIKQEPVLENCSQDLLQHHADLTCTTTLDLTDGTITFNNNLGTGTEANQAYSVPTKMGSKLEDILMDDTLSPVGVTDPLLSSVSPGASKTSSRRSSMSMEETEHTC

[3] = viability loss of HPDE-C7K cells – cell-based, fluorescence, HTS, primary screen (AID 431); type: functional; conditions: Homo sapiens
[4] = toxicity toward immortalized ovarian surface epithelium – cell-based, plate reader, dry powder samples, cytotoxicity control for PAX8 inhibitor project, dose response (AID 743045); type: functional
[5] = HPDE-C7 pancreatic duct cell viability loss – fluorescence, HTS (AID 430); type: functional, cell-based; conditions: Homo sapiens
[6] = biological target: T2, Replicative DNA helicase DnaB (Mycobacterium tuberculosis, UniProt P9WMR3); experiment: DnaB intein splicing inhibitors, dose response, biochemical, cell-free fluorescence (AID 449749); type: functional
T2 sequence (P9WMR3 whole entry): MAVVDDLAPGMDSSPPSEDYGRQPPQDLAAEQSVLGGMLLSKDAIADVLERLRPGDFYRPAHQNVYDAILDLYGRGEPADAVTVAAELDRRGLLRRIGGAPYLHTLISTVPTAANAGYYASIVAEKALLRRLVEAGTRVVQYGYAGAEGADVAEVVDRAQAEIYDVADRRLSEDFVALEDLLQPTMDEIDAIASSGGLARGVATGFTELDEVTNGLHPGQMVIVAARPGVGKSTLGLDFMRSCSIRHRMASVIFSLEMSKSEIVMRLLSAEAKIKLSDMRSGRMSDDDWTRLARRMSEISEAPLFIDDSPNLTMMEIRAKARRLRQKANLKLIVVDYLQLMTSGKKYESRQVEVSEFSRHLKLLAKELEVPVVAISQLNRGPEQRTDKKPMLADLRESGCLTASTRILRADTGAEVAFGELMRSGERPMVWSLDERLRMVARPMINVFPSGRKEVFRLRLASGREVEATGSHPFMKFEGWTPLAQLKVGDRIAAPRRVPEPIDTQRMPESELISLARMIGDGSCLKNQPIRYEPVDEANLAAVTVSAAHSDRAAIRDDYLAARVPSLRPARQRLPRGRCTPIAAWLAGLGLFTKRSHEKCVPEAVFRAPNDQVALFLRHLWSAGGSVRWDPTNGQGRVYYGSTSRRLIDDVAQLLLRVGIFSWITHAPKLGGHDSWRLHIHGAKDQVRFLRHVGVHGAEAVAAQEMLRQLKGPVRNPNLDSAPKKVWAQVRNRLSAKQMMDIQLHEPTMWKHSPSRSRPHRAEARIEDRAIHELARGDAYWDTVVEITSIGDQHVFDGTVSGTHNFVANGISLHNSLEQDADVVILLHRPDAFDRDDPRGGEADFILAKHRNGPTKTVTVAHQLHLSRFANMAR

[7] = IGROV1 cell killing – plate reader, dry powder samples, PAX8 inhibitor project, dose response (AID 743043); type: functional, cell-based; conditions: IGROV-1
[8] = OVCAR4 cell viability loss – plate reader, dry powder, SA11, cytotoxicity control for PAX8 inhibitor project, dose response (AID 743150); type: functional, cell-based; conditions: OVCAR-4
[9] = PAX8-dependent cell viability loss – plate reader, dry powder, dose response (AID 743049); type: functional, cell-based
[10] = Luminescence Cell-Based Dose Response HTS to Identify Activators of Luciferase Translation or Activity in H4 […] Cells. [Related pubchem assays: 1829 (Project Summary), 1814 (Primary HTS)]; type: functional
[11] = OV-90 cell viability loss – plate reader, dry powder, SA8, PAX8 inhibitor project, dose response (AID 743149); type: functional, cell-based
[12] = biological target: T3, Protein RecA (Mycobacterium tuberculosis, UniProt P9WHJ3); experiment: Fluorescence Cell-Free Homogeneous Dose Retest to Identify Inhibitors of RecA-Intein Splicing Activity. [Related pubchem assays (depositor defined):AID2097, AID2223, AID489010, AID492950]; type: functional
T3 sequence (P9WHJ3 whole entry): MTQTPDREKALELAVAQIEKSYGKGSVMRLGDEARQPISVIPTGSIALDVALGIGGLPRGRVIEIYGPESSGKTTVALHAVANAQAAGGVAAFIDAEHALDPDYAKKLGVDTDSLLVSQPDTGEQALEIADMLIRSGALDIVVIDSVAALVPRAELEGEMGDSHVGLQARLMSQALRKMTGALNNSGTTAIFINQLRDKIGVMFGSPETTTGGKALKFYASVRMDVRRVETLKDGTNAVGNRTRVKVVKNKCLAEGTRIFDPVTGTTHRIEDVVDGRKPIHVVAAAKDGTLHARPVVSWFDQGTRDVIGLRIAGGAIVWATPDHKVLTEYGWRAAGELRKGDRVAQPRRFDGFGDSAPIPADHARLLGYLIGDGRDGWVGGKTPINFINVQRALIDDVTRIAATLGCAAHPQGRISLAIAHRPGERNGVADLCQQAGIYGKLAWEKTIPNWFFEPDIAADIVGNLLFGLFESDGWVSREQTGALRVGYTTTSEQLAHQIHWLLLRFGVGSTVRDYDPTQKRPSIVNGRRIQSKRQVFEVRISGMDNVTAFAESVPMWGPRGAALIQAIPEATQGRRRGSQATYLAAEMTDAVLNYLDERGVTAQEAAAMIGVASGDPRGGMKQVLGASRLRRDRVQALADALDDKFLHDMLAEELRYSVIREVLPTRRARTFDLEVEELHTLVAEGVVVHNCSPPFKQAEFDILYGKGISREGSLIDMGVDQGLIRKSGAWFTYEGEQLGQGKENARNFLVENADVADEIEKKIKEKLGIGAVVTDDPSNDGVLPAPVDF

[13] = tested on: H4; experiment: Luminescence Cell-Based Dose Response HTS to Identify Activators of 5'UTR Stem-Loop Driven Prion Protein mRNA Translation in H4 Neuroglioblastoma Cells. [Related pubchem assays: 1829 (Project Summary), 1814 (Primary HTS)]; type: functional; conditions: Homo sapiens
[14] = COV362 cell viability loss – plate reader, dry powder, SA12, cytotoxicity control for PAX8 inhibitor project, dose response (AID 743144); type: functional, cell-based
[15] = tested on: A-375; experiment: MITF: Counter assay: A375 proliferation Measured in Cell-Based System Using Plate Reader - 2084-03_Inhibitor_Dose_DryPowder_Activity. [Related pubchem assays (depositor defined):AID488944]; type: functional; conditions: Homo sapiens
[16] = biological target: Paired box protein Pax-8 (Homo sapiens, UniProt Q06710); experiment: PAX8 transcriptional activity inhibition in RMG-I – RMG-I cells, luciferase, cherry-pick, dose response (AID 687027); type: functional, cell-based;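 note: luciferase reporter driven by Pax8 target thyroperoxidase promoter measured by SteadyGlo luminescence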
[17] = inhibitors acting on PAX2 in cells – cell-based, plate reader, dry powder samples, selectivity assay for PAX8 inhibitor project, dose response (AID 743048); type: functional;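 note: HEK293 cells carrying a WT1 promoter luciferase reporter driven by expressed Pax2; potency is for inhibition of Pax2 driven reporter signal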
[18] = A2780 cell killing – plate reader, dry powder samples, cytotoxicity control, dose response (AID 743046); type: functional, cell-based
[19] = COV434 cell viability loss – plate reader, dry powder, SA7, cytotoxicity control for PAX8 inhibitor project, dose response (AID 743145); type: functional, cell-based
[20] = tested on: A-375; experiment: proliferation inhibition in MITF-low A375 cells – cell-based, cherry-pick samples, set 2, counter-screen for MITF modulator project, dose response (AID 540335); type: functional; conditions: Homo sapiens
[21] = tested on: HeLa; experiment: ATP-based viability loss in HeLa cells – cell-based, CellTiter-Glo luminescence, cherry-pick samples, cytotoxicity control for MITF activator project, dose response (AID 540259); type: functional; conditions: Homo sapiens
[22] = tested on: NIH3T3; experiment: mammalian cell viability counter-check – Alamar Blue, fluconazole, dry powder, cytotoxicity control for antifungal drug resistance project, dose response (AID 488809); type: functional, cell-based; conditions: Mus musculus
[23] = tested on: INS1; experiment: INS-1E mitochondrial potential rescue under cytokines – cell-based, JC-1 fluorescence ratio, dry powder, dose response (AID 488931); type: functional; conditions: Rattus norvegicus
[24] = suppression of NO production in INS-1E cells – cell-based, Griess absorbance, dry powder, set 3, dose response (AID 488870); type: functional; conditions: Rattus norvegicus
[25] = tested on: INS1; experiment: suppression of NO production in INS-1E cells – cell-based, Griess absorbance, dry powder, set 2, dose response (AID 488868); type: functional; conditions: Rattus norvegicus
[26] = tested on: INS1; experiment: beta-cell survival under cytokine stress – INS-1E, ATP luminescence, dry powder, dose response (AID 488844); type: functional, cell-based; conditions: Rattus norvegicus
[27] = tested on: Vero; experiment: mammalian cell viability reduction – secondary assay, cytotoxicity control for West Nile virus antiviral project, dose response (AID 1650); type: functional; conditions: Chlorocebus sabaeus
[28] = biological target: DNA repair protein RAD52 homolog (Homo sapiens, UniProt P43351); type: functional, biochemical
[29] = tested on: BJ; experiment: BJ-TERT fibroblast viability loss – cell-based, RAS-independent, luminescence, dose response (AID 1933); type: functional; conditions: Homo sapiens
[30] = cytotoxicity toward MDA-MB-231 breast cancer cells – cell-based, CellTiter-Glo luminescence, cherry-pick, cytotoxicity control for RAD54 inhibitor project, dose response (AID 651692); type: functional
[31] = tested on: BJ; experiment: BJ-TERT-LT-ST fibroblast viability loss – cell-based, RAS-independent, luminescence, dose response (AID 1935); type: functional; conditions: Homo sapiens;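 note: BJ fibroblasts immortalized with TERT plus LT and ST oncogenes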
[32] = tested on: BJ; experiment: cells; type: functional, cell-based; conditions: Homo sapiens
[33] = tested on: BJ; experiment: growth inhibition of engineered Ras-driven BJ cells – cell-based, alamar blue fluorescence, cherrypicked samples, dose response (AID 2631); type: functional; conditions: Homo sapiens;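 note: confirmatory dose-response assay in RAS-dependent BJ fibroblasts engineered with TERT, LT and ST, with cytotoxicity read by fluorescence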
[34] = biological target: DNA repair and recombination protein RAD54-like (Homo sapiens, UniProt Q92698); experiment: RAD54 Holliday junction migration blockers – biochemical, fluorescence, cherry-picked samples, dose series, confirmation (AID 651657); type: functional
[35] = DRD fibroblast viability loss – cell-based, non-viral oncogenic, luminescence, dose response (AID 1934); type: functional; conditions: Homo sapiens
[36] = biological target: Dual specificity tyrosine-phosphorylation-regulated kinase 1A (Rattus norvegicus, UniProt Q63470); type: biochemical, Homo sapiens

Paired box protein Pax-8, sequence (Q06710 whole entry): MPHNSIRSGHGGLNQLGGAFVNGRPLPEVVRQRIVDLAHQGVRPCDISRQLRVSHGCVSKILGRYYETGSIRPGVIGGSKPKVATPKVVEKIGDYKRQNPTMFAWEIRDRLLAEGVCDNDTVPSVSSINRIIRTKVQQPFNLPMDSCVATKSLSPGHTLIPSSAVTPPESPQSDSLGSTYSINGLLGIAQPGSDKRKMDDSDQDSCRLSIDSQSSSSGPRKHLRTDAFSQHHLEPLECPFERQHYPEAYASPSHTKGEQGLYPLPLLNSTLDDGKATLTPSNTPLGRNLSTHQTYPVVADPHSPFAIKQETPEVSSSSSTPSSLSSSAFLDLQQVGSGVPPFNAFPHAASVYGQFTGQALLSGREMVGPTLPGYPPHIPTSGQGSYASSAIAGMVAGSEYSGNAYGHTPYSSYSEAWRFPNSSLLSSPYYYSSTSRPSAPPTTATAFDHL
DNA repair protein RAD52 homolog, sequence (P43351 whole entry): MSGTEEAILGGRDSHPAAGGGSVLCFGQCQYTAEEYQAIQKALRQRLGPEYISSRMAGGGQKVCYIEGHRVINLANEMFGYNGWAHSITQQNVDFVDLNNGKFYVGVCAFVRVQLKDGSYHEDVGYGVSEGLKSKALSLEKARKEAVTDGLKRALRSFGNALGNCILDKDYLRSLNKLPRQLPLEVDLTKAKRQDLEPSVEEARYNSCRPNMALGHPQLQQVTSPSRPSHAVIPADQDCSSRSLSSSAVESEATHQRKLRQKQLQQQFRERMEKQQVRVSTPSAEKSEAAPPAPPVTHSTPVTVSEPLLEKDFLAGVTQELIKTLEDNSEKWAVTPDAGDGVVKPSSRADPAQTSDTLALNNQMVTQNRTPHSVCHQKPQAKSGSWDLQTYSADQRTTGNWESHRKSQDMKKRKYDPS
DNA repair and recombination protein RAD54-like, sequence (Q92698 whole entry): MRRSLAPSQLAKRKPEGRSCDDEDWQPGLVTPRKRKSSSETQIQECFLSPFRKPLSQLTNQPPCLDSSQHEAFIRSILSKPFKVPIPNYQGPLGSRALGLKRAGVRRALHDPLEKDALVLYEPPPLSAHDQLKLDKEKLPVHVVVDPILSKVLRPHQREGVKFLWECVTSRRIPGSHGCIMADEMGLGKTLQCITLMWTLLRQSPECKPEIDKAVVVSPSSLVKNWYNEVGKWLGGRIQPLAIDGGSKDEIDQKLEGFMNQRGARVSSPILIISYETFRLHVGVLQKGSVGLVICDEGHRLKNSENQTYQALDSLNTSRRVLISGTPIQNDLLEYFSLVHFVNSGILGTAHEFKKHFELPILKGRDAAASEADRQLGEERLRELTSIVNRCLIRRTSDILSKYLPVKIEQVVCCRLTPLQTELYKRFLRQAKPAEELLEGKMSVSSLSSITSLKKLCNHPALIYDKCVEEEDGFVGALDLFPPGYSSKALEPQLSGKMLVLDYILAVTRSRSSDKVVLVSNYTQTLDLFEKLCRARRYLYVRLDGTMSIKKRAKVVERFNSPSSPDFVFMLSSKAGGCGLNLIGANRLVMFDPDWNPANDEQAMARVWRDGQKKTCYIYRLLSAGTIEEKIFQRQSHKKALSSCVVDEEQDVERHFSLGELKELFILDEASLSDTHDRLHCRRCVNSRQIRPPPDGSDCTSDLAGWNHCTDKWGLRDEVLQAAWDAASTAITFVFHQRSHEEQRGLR

SMILES: Cn1nnnc1Sc1ncnc2scc(-c3ccc(F)cc3)c12
- AC50 [1]: 36.4 µM (active)
- AC50 [2]: 8.1 µM (active)
- EC50 [3]: 5.32 µM (active)
- AC50 [4]: 68.6 µM (active)
- EC50 [5]: 5.23 µM (active)
- AC50 [6]: 93 µM (active)
- AC50 [7]: 35.6 µM (active)
- AC50 [8]: 39.7 µM (active)
- AC50 [9]: 26.6 µM (active)
- EC50 [10]: 0.116 µM (active)
- AC50 [11]: 44.6 µM (active)
- EC50 [12]: 11.2 µM (active)
- EC50 [13]: > 120 µM (not active)
- AC50 [14]: 48 µM (active)
- AC50 [15]: > 35 µM (active)
- AC50 [16]: 4.15 µM (active)
- AC50 [17]: 28.6 µM (active)
- AC50 [18]: 29.8 µM (active)
- AC50 [19]: 37.1 µM (active)
- AC50 [20]: > 35 µM (active)

SMILES: Nc1nc(-c2cc(-c3ccccc3)no2)cs1
- AC50 [21]: 144 µM (active)

SMILES: COc1ccc2c(c1)c1nc3n(c(=O)c1n2CC(=O)N1CCC(Cc2ccccc2)CC1)CCS3
- AC50 [22]: 207 µM (active)

SMILES: COc1cccc(S(=O)(=O)N(C)C[C@@H]2Oc3c(NC(=O)Nc4cccc5ccccc45)cccc3C(=O)N([C@@H](C)CO)C[C@H]2C)c1
- AC50 [23]: 98.9 µM (active)
- AC50 [24]: 29 µM (active)
- AC50 [25]: 28.7 µM (active)
- AC50 [26]: 77 µM (active)

SMILES: Nc1nc(N)c2c(ccc3[nH]ccc32)n1
- CC50 [27]: 5.14 µM (active)
- AC50 [28]: 12 µM (active)
- EC50 [29]: 112 µM (active)
- AC50 [30]: 4.07 µM (active)
- EC50 [31]: > 38 µM (not active)
- EC50 [32]: 4.8 µM (inconclusive)
- EC50 [33]: > 133 µM (inactive)
- AC50 [34]: 38.6 µM (active)
- EC50 [35]: 14.4 µM (inconclusive)
- AC50 [36]: 5.51 µM (active)
